In BigSolDB 2.1:

Conditions: in water

Structure (SMILES) | solubility (mole fraction) (298.1 K) | solubility (mole fraction) (303.1 K) | solubility (mole fraction) (310.1 K) | solubility (mole fraction) (318.1 K) | solubility (mole fraction) (328.1 K)
CCCCCCCCCc1ccc(O)cc1 | 4e-08 | 5e-08 | 7e-08 | 1.4e-07 | 2e-07
CCCCCCCCc1ccc(O)cc1 | 2.9e-07 | 3.4e-07 | 4.7e-07 | 6.4e-07 | 8.4e-07
CC(C)(C)CC(C)(C)c1ccc(O)cc1 | 1.32e-06 | 1.55e-06 | 1.91e-06 | 2.52e-06 | 3.83e-06
